This note sets out measurements from US12606561B2, “Substituted pyrazolo[1,5-a][1,3,5]triazines as CDK inhibitors” (QURIENT CO., LTD., priority 2018, dated 2026).

The IC50 is the midpoint of a concentration-inhibition curve.

One experiment deals with T1, CDK1/Cyclin B (Homo sapiens, UniProt P06493).
T1 construct: purchased Invitrogen PR4768C
Put plainly: Enzymatic assay for CDK1 (LANCE Ultra kinase assay, FRET based). The class given is biochemical. As to conditions: ATP at Km; read-out: CDK1 enzymatic activity IC50. A digest of the protocol:
(§1)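 TR-FRET (LANCE Ultra) kinase assays with a ULight-labelled peptide substrate and a Europium-labelled anti-phospho antibody. ATP was set at its Km for each kinase. Inhibition was measured on purified CDK/cyclin complexes: CDK7/Cyclin H/MNAT1 and CDK1/Cyclin B.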
In general terms: In TR-FRET formats the signal depends on donor and acceptor labels being close together.

The next experiment deals with T2, CDK2/Cyclin A (Homo sapiens, UniProt P24941).
T2 construct: purchased Invitrogen PV6290
Put plainly: Enzymatic assay for CDK2 (LANCE Ultra kinase assay, FRET based). The class given is biochemical. As to conditions: ATP at Km. The essentials:
(§2)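 Inhibition was measured at ATP Km with 68 nM ULight-MBP peptide and CDK2/Cyclin A ([…]) or CDK5/p25 ([…]), using 8-dose 4-fold compound dilutions from DMSO. Kinase reaction ran 60 min at 23° C, then Eu anti-phospho-MBP plus EDTA were added for another 60 min before the fluorescence read.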

In the next experiment the target is T3, CDK5/p25 (Homo sapiens, UniProt Q00535).
T3 construct: purchased Invitrogen PR8543B
T3 sequence (Q00535 whole entry): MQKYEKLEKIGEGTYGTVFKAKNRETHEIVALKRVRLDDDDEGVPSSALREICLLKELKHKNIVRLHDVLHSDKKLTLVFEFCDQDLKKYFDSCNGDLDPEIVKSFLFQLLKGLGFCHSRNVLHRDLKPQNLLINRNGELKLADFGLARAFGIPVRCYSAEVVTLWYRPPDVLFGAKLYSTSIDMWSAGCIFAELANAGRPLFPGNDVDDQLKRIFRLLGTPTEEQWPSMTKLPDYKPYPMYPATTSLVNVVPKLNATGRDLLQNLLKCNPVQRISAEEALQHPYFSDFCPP
T3 sequence (Q15078 99-307 partner limits assumed): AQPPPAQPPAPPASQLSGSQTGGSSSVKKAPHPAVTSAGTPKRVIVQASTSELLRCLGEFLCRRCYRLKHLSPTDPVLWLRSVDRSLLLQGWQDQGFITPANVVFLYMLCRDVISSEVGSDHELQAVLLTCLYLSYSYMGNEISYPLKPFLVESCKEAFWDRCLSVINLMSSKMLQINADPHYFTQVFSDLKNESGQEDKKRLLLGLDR
Put plainly: Enzymatic assay for CDK5 (LANCE Ultra kinase assay, FRET based). It counts as biochemical. Particulars: ATP at Km. A digest of the protocol:
as §2

The target in the next experiment is T4, CDK7/Cyclin H/MNAT1 (Homo sapiens, UniProt P50613).
T4 construct: purchased Invitrogen PR6749B
T4 sequence (P50613 whole entry): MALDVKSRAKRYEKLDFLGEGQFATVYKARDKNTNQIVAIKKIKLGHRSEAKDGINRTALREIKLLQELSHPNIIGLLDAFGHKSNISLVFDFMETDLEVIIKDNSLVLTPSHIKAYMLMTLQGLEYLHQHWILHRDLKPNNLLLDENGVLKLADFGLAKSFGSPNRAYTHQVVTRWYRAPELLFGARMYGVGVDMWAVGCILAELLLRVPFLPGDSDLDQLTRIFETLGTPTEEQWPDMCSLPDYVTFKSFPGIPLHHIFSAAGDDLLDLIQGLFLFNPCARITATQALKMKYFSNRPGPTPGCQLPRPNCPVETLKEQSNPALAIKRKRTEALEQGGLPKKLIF
T4 sequence (P51946 whole entry partner): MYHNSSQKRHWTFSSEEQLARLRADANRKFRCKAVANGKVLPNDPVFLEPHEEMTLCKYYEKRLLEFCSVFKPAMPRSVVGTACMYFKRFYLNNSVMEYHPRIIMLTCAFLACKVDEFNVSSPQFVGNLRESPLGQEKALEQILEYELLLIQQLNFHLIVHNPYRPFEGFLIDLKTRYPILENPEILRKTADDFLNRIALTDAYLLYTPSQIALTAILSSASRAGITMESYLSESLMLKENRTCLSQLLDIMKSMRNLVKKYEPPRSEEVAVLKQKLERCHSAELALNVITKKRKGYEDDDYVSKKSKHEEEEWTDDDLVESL
T4 sequence (P51948 whole entry partner): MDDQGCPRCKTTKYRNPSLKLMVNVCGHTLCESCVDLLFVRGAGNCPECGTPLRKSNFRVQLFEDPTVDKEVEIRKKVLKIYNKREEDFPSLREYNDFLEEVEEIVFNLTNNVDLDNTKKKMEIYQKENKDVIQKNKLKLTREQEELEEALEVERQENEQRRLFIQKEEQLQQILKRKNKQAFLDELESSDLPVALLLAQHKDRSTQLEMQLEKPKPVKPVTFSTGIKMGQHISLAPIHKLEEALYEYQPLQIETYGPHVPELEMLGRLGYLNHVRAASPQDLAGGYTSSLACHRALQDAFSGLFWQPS
Put plainly: Enzymatic assay for CDK7 (LANCE Ultra kinase assay, FRET based). It counts as biochemical. The essentials:
as §1

A further experiment concerns H460. Put plainly: Cellular H460 viability assay (CellTiter-Glo, 72 hours). It counts as cell-based. As to conditions: Homo sapiens, NCI-H460; H460 cells. How it is done: All cell lines were routinely tested for mycoplasma.
To effect of the CDK7 inhibitor to inhibit the growth of target cancer cells, viability assay were conducted a 72 hour time period. Briefly, the candidate cell line was plated in 96 well plate at the following density of cells respectively. 1×10^4 cells/well for MV4-11, 5×10^3 for H460 and OVCAR-3, and 1×10^3 for A2780. […] DMSO solvent without compound served as a control and final DMSO concentration lest than 0.1%. After 72 hours of incubation at 37° C., 5% CO2 incubator, cells were analyzed for the viability using the CellTiter-Glo Luminescent Cell Viability Assay (Promega, Cat #G7570). All viability assays were performed in duplicate and Luminescence was read using an Envision (Perkin Elmer, USA). Data was analyzed using XLfit software.

The subject of the next experiment is MV4-11. Put plainly: Cellular MV4-11 viability assay (CellTiter-Glo, 72 hours). Particulars: Homo sapiens; MV4-11 cells. The class given is cell-based. A digest of the protocol:
(§3)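 Cells in RPMI-1640 with 10% FBS were seeded (MV4-11 1×10^4, OVCAR-3 5×10^3, A2780 1×10^3 cells/well) and treated 24 h later with compound at 0.0015–10 uM, final DMSO under 0.1%. After 72 h at 37 °C, viability was read by CellTiter-Glo luminescence, in duplicate.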
(ATP-based viability assays read luminescence as a measure of living cells.)

For another experiment, the system named is A2780. Put plainly: A2780 viability assay (CellTiter-Glo, 72 hours). The class given is cell-based. Particulars: Homo sapiens; A2780 cells. The essentials: as §3
For a further experiment, the system named is OVCAR-3. Put plainly: OVCAR-3 viability assay (CellTiter-Glo, 72 hours). The class given is cell-based. As to conditions: Homo sapiens; OVCAR-3 cells. The essentials: as §3

T1 sequence (P06493 whole entry): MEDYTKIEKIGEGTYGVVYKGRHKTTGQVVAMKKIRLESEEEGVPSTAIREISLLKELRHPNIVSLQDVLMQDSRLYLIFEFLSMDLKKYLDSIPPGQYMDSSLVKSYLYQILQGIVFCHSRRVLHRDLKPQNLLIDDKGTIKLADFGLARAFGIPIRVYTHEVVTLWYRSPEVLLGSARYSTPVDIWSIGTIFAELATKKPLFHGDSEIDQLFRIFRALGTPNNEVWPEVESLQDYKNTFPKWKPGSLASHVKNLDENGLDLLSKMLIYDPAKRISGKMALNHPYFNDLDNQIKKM
T1 sequence (P14635 whole entry partner): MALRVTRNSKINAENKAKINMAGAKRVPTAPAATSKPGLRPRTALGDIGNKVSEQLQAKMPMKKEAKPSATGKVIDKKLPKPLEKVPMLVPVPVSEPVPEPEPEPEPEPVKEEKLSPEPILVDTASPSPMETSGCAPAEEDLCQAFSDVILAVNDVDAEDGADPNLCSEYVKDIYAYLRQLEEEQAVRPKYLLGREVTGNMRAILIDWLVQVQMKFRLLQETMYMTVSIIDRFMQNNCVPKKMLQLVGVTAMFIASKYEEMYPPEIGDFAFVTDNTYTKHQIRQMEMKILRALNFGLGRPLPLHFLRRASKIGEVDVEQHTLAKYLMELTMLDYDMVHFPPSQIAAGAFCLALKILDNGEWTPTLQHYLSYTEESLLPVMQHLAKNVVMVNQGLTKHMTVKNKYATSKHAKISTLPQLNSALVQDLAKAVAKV

For the molecule `CC(C)c1cnn2c(NCc3ccccc3-c3cc4c(NC(=O)/C=C/CN(C)C)cccc4[nH]3)nc(N3CCC(N)CC3)nc12` [Compound 3], the IC50 at CDK1/Cyclin B was 100 to 1000 nM; against CDK2/Cyclin A, 100 to 1000 nM; against CDK5/p25, less than 100 nM; on CDK7/Cyclin H/MNAT1 (ATP at Km) it was less than 100 nM; with H460, less than 1000 nM; with MV4-11, less than 1000 nM. Further, the IC50 in the experiment with A2780 and in the experiment on OVCAR-3 was less than 1000 nM throughout. For the same molecule, the “CDK1/CDK7: Selectivity of CDK7 inhibition over CDK1 inhibition” value on CDK7/Cyclin H/MNAT1 (CDK7 over CDK1) was “C (C indicates [fold] ≤ 50)”. Further, at CDK7/Cyclin H/MNAT1 (CDK7 over CDK2), the “CDK2/CDK7: Selectivity of CDK7 inhibition over CDK2 inhibition” value is “C (C indicates [fold] ≤ 50)”. For the same molecule, the “CDK5/CDK7: Selectivity of CDK7 inhibition over CDK5 inhibition” value on CDK7/Cyclin H/MNAT1 (CDK7 over CDK5) is “C (C indicates [fold] ≤ 50)”.
